# Data published in paper PMC10974579, “A Monocarbonyl Curcuminoid Derivative Inhibits the Activity of Human Glutathione Transferase A4-4 and Chemosensitizes Glioblastoma Cells to Temozolomide” (Pharmaceuticals, 2024).
# Like-named read-outs stand apart in the source and are kept apart here.
# Tests used:
# [1] = system: U-87 MG cells; conditions: cited from earlier work
# [2] = system: U-251 MG cells; test: TMZ sensitization experiment, MTT assay, U-251 MG; type: cell-based, human
# Method: Cell cultures were maintained in flasks and grown at 37 °C in a humidified atmosphere of 5% CO2. […] Cells were seeded in 96-well plates (8 × 10^3 cells/well in 100 μL culture medium) and grown overnight at 37 °C in a 5% CO2 incubator. Exponentially growing cells were incubated for 48 h with various concentrations ranging between 10^−3 and 10^−8 M of each compound. The final DMSO concentration never exceeded 0.2%. The medium was then removed and replaced with 100 μL MTT solution (1 mg/mL). After 4 h incubation, the solution was aspirated, formazan crystals were solubilized in 100 μL DMSO, and the absorbance was recorded at 540 nm (Tecan well plate reader). The same procedure was followed for the TMZ sensitization experiments. […] Data were analyzed using the GraphPad Prism 5.0 software.
# [3] = In vitro cytotoxicity, MTT assay, U-87 MG; type: cell-based, human; conditions: human, U-87 MG cells, pH 7.4, U-87 MG cells
# Method: (§1) U-251 and U-87 MG cells were grown in Dulbecco’s modified Eagle’s growth medium (pH 7.4) supplemented with 10% FBS, 100 U/mL penicillin, 2 mM glutamine, and 100 μg/mL streptomycin. Cell cultures were maintained in flasks and grown at 37 °C in a humidified atmosphere of 5% CO2. Subconfluent cells were detached using 0.05% (w/v) trypsin−0.25% (w/v) ethylenediaminetetraacetic acid solution at a subcultivation ratio of 1:2 to 1:5. […] Cells were seeded in 96-well plates (8 × 10^3 cells/well in 100 μL culture medium) and grown overnight at 37 °C in a 5% CO2 incubator. Exponentially growing cells were incubated for 48 h with various concentrations ranging between 10^−3 and 10^−8 M of each compound. The final DMSO concentration never exceeded 0.2%. The medium was then removed and replaced with 100 μL MTT solution (1 mg/mL). After 4 h incubation, the solution was aspirated, formazan crystals were solubilized in 100 μL DMSO, and the absorbance was recorded at 540 nm (Tecan well plate reader). The same procedure was followed for the TMZ sensitization experiments. […] Data were analyzed using the GraphPad Prism 5.0 software.
# [4] = system: U-87 MG cells; test: In vitro cytotoxicity, MTT assay, U-87 MG; type: cell-based, human; conditions: 48 h
# Method: as §1
# [5] = In vitro cytotoxicity, MTT assay, U-251 MG; type: cell-based, human; conditions: human, U-251 MG cells, pH 7.4, U-251 MG cells
# Method: as §1
# [6] = system: U-251 MG cells; test: In vitro cytotoxicity, MTT assay, U-251 MG; type: cell-based, human; conditions: 48 h
# Method: as §1
# [7] = target: hGSTP1-1; set-up: method as in PMID 36670925; conditions: cited from earlier work; for Ki: read-out: inhibition constant Ki
# [8] = target: T1, hGSTA4-4 (Homo sapiens, UniProt O15217); test: hGSTA4-4 enzyme inhibition assay (CDNB-GSH conjugation, 340 nm); conditions: for inhibition at 100 µM: read-out: Enzyme Inhibition (%), hGSTA4-4, compound at 100 μM, mean of three experiments; for Enzyme Inhibition (%): hGSTA4-4, compound at 100 μM, mean of three experiments, 100 µM
# T1 sequence (O15217 1-222): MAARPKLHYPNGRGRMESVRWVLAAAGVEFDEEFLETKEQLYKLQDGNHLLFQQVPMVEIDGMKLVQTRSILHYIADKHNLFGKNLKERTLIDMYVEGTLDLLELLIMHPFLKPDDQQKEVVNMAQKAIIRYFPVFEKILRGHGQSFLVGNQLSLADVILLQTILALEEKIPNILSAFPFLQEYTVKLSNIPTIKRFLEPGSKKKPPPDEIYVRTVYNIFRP
# Method: hGSTA4-4 activity was determined by monitoring (at 25 °C) the formation of the conjugate between CDNB and GSH at 340 nm (ε = 9600 L·mol^−1·cm^−1) for 120 s, as previously described [58]. One unit of enzyme activity is defined as the amount of enzyme that produces 1.0 μmol of product per minute under the assay conditions. The tested natural products and monocarbonyl curcumin derivatives were dissolved in DMSO (100 μΜ) and added to the assay mixture (the volume of DMSO was maintained at a 2% v/v final concentration). Initial velocities were determined in triplicates and were corrected for spontaneous reaction rates, when necessary. […] The IC50 values were determined from a graph of the remaining enzyme activity (%) against inhibitor concentration. The computer program GraphPad Prism version 8 (GraphPad Prism Software, Inc., Boston, MA, USA) was used for producing kinetic graphs and determining apparent kinetic parameters/constants and IC50 values.
SMILES,inhibition at 100 µM [8],Enzyme Inhibition (%) [8],further results
"Cn1nnc2c(C(N)=O)ncn2c1=O [TMZ, temozolomide]",,,"IC50 ([1]; 48 h, interquartile range, read-out: IQR of IC50): 92 to 590 µM; IC50 ([1]; 48 h, read-out: median IC50): 223 µM; cell survival ([2]; 48 h, TMZ alone at 150 μM): > 85%"
O=C1/C(=C/c2ccc(O)c(O)c2)CCC/C1=C\c1ccc(O)c(O)c1 [DM151],,,"IC50 at 48 h [3]: 18.9 µM; IC50 [4]: 18.9 ± 5.81 µM; IC50 at 48 h [5]: 25.5 µM; IC50 [6]: 25.6 ± 4.83 µM; Ki ([7]; hGSTP1-1, CDNB substrate): 9.55 µM; type of inhibition ([7]; hGSTP1-1, both GSH and CDNB substrates): purely non-competitive; Ki ([7]; hGSTP1-1, variable substrate GSH): 5.79 µM; cell survival in combination with TMZ ([2]; 3 h pretreatment with compound 10 μM, then TMZ 150 μM 48 h): 45%; cell survival in combination with TMZ ([2]; 6 h pretreatment with compound 10 μM, then TMZ 150 μM 48 h): approximately 35%; cell survival ([2]; 48 h, compound alone at 10 μM): > 85%; cell survival in combination with TMZ ([2]; compound 10 μM + TMZ 150 μM added together, 48 h): 55%"
O=C(/C=C/c1ccc(F)cc1)/C=C/c1ccc(F)cc1 [DM109],73.9%,,
Oc1ccc(/C=C/c2cc(O)cc(O)c2)cc1 [Resveratrol],8.9%,8.87%,
O=c1c(O)c(-c2ccc(O)c(O)c2)oc2cc(O)cc(O)c12 [Quercetin],84.7%,,
O=C(/C=C/c1ccc(O)cc1)/C=C/c1ccc(O)cc1 [DM96],> 90%,81.8%,
COc1ccc(/C=C2\CCC/C(=C\c3ccc(OC)cc3)C2=O)cc1 [DM46],64.9%,,
O=C(/C=C/c1ccc(O)c(O)c1)/C=C/c1ccc(O)c(O)c1 [DM148],4.6%,,"IC50 at 48 h [3]: 91.1 µM; IC50 [4]: 91.1 ± 5.64 µM; IC50 at 48 h [5]: 89.2 µM; IC50 [6]: 89.2 ± 3.41 µM; cell survival ([2]; 48 h, compound alone at 10 μM): > 85%; change of cell survival in combination with TMZ ([2]; compound 10 μM + TMZ 150 μM, added together or 3 or 6 h pre-incubation, 48 h): did not result in any dramatic changes"
CC1=C(C=O)C(C)(C)CC=C1 [Safranal],21.8%,,
O=C(O)c1cc(O)c(O)c(O)c1 [Gallic acid],20.8%,,
"O=c1oc2c(O)c(O)cc3c(=O)oc4c(O)c(O)cc1c4c23 [Ellagic acid, Ellagic Acid]",95%,95.1%,"IC50 ([1]; 48 h treatment, read-out: IC50 (cytotoxicity)): 91.2 µM; IC50 [8]: 0.44 ± 0.01 µM"
COc1cc2c(c(OC)c1OC)-c1ccc(OC)c(=O)cc1[C@@H](NC(C)=O)CC2 [Colchicine],17%,17.1%,
COc1ccc(/C=C2\CCC/C(=C\c3ccc(OC)c(OC)c3)C2=O)cc1OC [DM57],55.7%,,
COc1ccc(/C=C/C(=O)/C=C/c2ccc(OC)c(OC)c2)cc1OC [DM95],54.8%,,
COc1cc(/C=C/C(=O)/C=C/c2ccc(O)c(OC)c2)ccc1O [DM101],> 90%,94.1%,IC50 [8]: 12.7 ± 1.1 µM
COc1cc(/C=C2\CCC/C(=C\c3ccc(O)c(OC)c3)C2=O)ccc1O [DM100],> 90%,95.1%,IC50 [8]: 16.9 ± 0.4 µM
O=C1/C(=C/c2ccc(F)cc2)CCC/C1=C\c1ccc(F)cc1 [DM62],74.9%,,
O=C1c2c(O)cc(O)cc2O[C@H](c2ccc(O)c(O)c2)[C@H]1O [Taxifolin hydrate],40%,40.37%,
O=C(O)/C=C/c1ccc(O)cc1 [Coumaric Acid],27.3%,,
O=C(O[C@@H]1Cc2c(O)cc(O)cc2O[C@@H]1c1cc(O)c(O)c(O)c1)c1cc(O)c(O)c(O)c1 [Epigallocatechin gallate],86.4%,,
OC[C@H]1O[C@@H](Oc2cc(O)cc(/C=C/c3ccc(O)cc3)c2)[C@H](O)[C@@H](O)[C@@H]1O [Polydatin],32.3%,,
COc1cc(/C=C/C(=O)CC(=O)/C=C/c2ccc(O)c(OC)c2)ccc1O [Curcumin],80.9%,,
O=C1C[C@@H](c2ccc(O)cc2)Oc2cc(O)cc(O)c21 [Naringenin],28.5%,,
